US12281122B1, “PI3K inhibitors” (Cogent Biosciences, Inc., priority 2023, dated 2025)

Columns and labels:
[1] = test system: SKBR3 (PI3Kα-Wild Type) cell line; assay: HTRF phospho-AKT(S473) cell assay in SKBR3 cells; assay type: cell-based, human
Outline: (§1)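 T47D (PI3Kα-H1047R; RPMI, 10% FBS, insulin) and SKBR3 (wild-type PI3Kα; McCoy's 5A, 10% FBS) cells treated 2 h at 37 °C with 12-point 1:3 dilutions, top 5 μM and 10 μM respectively, ≤0.5% DMSO. SKBR3 stimulated with 70 ng/ml PDGF-BB for the last 15 min; lysate pAKT(S473) by HTRF, IC50 from curves.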

[2] = test system: T47D (PI3Kα-H1047R) cell line; assay: HTRF phospho-AKT(S473) cell assay in T47D cells; assay type: cell-based, human
Outline: as §1

[3] = Homo sapiens, SK-BR-3; HTRF phospho-AKT(S473), SKBR3 (PI3Kα-Wild Type) cells, 2 hours compound incubation, PDGF-BB stimulated
[4] = Homo sapiens; HTRF phospho-AKT(S473), T47D (PI3Kα-H1047R) cells, 2 hours compound incubation
[5] = Homo sapiens, SK-BR-3; SKBR3 (PI3Kα-Wild Type) cells, HTRF phospho-AKT(S473), 2 hours compound incubation, PDGF-BB stimulated
[6] = Homo sapiens; T47D (PI3Kα-H1047R) cells, HTRF phospho-AKT(S473), 2 hours compound incubation

CC(=O)N1CCN(c2ccc(-c3nc4c([C@@H](C)Nc5ccc(Cl)nc5C(=O)NS(C)(=O)=O)cc(C)cc4c(=O)n3C)cc2F)CC1(C)C [Compound 804, (R)-3-((1-(2-(4-(4-acetyl-3,3-dimethylpiperazin-1-yl)-3-fluorophenyl)-3,6-dimethyl-4-oxo-3,4-dihydroquinazolin-8-yl)ethyl)amino)-6-chloro-N-(methylsulfonyl) picolinamide]
IC50 [1, 3]: ≥ 5 µM | IC50 [2, 4]: < 0.25 µM

Cc1cc([C@@H](C)Nc2ccc(Cl)nc2C(=O)NS(C)(=O)=O)c2nc(N3CCC[C@@H](c4ccc(C)nc4)C3)n(C)c(=O)c2c1 (relative stereo) [Compound 238, 6-chloro-3-(((R)-1-(3,6-dimethyl-2-((R*)-3-(6-methylpyridin-3-yl)piperidin-1-yl)-4-oxo-3,4-dihydroquinazolin-8-yl)ethyl)amino)-N-(methylsulfonyl) picolinamide]
IC50 [1, 5]: 1 to 5 µM | IC50 [2, 6]: < 0.25 µM

Cc1cc([C@@H](C)Nc2ccc(Cl)nc2C(=O)NS(C)(=O)=O)c2nc(N3CCC(n4cc5ccccc5n4)CC3)n(C)c(=O)c2c1 [Compound 198, (R)-3-((1-(2-(4-(2H-indazol-2-yl)piperidin-1-yl)-3,6-dimethyl-4-oxo-3,4-dihydroquinazolin-8-yl)ethyl)amino)-6-chloro-N-(methylsulfonyl) picolinamide]
IC50 [1, 5]: 1 to 5 µM | IC50 [2, 6]: < 0.25 µM

CCn1c(N2CCc3nn(C)cc3C2)nc2c([C@@H](C)Nc3ccc(Cl)nc3C(=O)NS(C)(=O)=O)cc(C)cc2c1=O [Compound 546, (R)-6-chloro-3-((1-(3-ethyl-6-methyl-2-(2-methyl-2,4,6,7-tetrahydro-5H-pyrazolo[4,3-c]pyridin-5-yl)-4-oxo-3,4-dihydroquinazolin-8-yl)ethyl)amino)-N-(methylsulfonyl) picolinamide]
IC50 [1, 3]: 1 to 5 µM | IC50 [2, 4]: < 0.25 µM

Cc1cc([C@@H](C)Nc2ccc(Cl)nc2C(=O)NS(C)(=O)=O)c2nc(N3CCC[C@@H](Oc4cncnc4)C3)n(C)c(=O)c2c1 [Compound 360, 6-chloro-3-(((R)-1-(3,6-dimethyl-4-oxo-2-((R)-3-(pyrimidin-5-yloxy)piperidin-1-yl)-3,4-dihydroquinazolin-8-yl)ethyl)amino)-N-(methylsulfonyl) picolinamide]
IC50 [1, 5]: ≥ 5 µM | IC50 [2, 6]: 0.25 to 0.5 µM

Cc1cc([C@@H](C)Nc2ccc(Cl)nc2C(=O)NS(C)(=O)=O)c2nc(N3CCN(c4ccc(N)nc4)CC3)n(C)c(=O)c2c1 [Compound 174, (R)-3-((1-(2-(4-(6-aminopyridin-3-yl)piperazin-1-yl)-3,6-dimethyl-4-oxo-3,4-dihydroquinazolin-8-yl)ethyl)amino)-6-chloro-N-(methylsulfonyl) picolinamide]
IC50 [1, 5]: 1 to 5 µM | IC50 [2, 6]: < 0.25 µM

Cc1cc([C@@H](C)Nc2ccc(Cl)nc2C(=O)NS(C)(=O)=O)c2nc(N3C[C@@H]4[C@H](C3)[C@H]4c3ncn(C)n3)n(C)c(=O)c2c1 [Compound 507, 6-chloro-3-(((R)-1-(3,6-dimethyl-2-((1R,5S,6R)-6-(1-methyl-1H-1,2,4-triazol-3-yl)-3-azabicyclo[3.1.0]hexan-3-yl)-4-oxo-3,4-dihydroquinazolin-8-yl)ethyl)amino)-N-(methylsulfonyl) picolinamide]
IC50 [1, 3]: 1 to 5 µM | IC50 [2, 4]: 0.25 to 0.5 µM

Cc1cc([C@@H](C)Nc2ccc(Cl)nc2C(=O)NS(C)(=O)=O)c2nc(-c3ccc(-c4cn(C)cn4)cc3)n(C)c(=O)c2c1 [Compound 802, (R)-6-chloro-3-((1-(3,6-dimethyl-2-(4-(1-methyl-1H-imidazol-4-yl)phenyl)-4-oxo-3,4-dihydroquinazolin-8-yl)ethyl)amino)-N-(methylsulfonyl) picolinamide]
IC50 [1, 3]: 1 to 5 µM | IC50 [2, 4]: < 0.25 µM

COc1ccc(C2CCN(c3nc4c([C@@H](C)Nc5ccc(Cl)nc5C(=O)NS(C)(=O)=O)cc(C)cc4c(=O)n3C)CC2)cn1 [Compound 700, (R)-6-chloro-3-((1-(2-(4-(6-methoxypyridin-3-yl)piperidin-1-yl)-3,6-dimethyl-4-oxo-3,4-dihydroquinazolin-8-yl)ethyl)amino)-N-(methylsulfonyl) picolinamide]
IC50 [1, 3]: ≥ 5 µM | IC50 [2, 4]: 0.25 to 0.5 µM
